Values after ≈ are worked out from the molar mass of the structure shown. Read-outs that look alike come from different tables or passages of the source.
Experiments:
Test in all cases: Antibacterial effectiveness in a standard microtitre test (MIC)
Type in all cases: cell-based
Klebsiella aerogenes A = tested on: Klebsiella aerogenes A
Excerpt: (§1) Antibacterial effectiveness of the compounds of the Examples in a standard microtitre test.

[1] = tested on: Salmonella typhimurium CR10; conditions: Salmonella enterica
Excerpt: as §1

Escherichia coli 0111 = tested on: Escherichia coli 0111
Excerpt: as §1

Shigella sonnei MB 11967 = conditions: MB11967
Excerpt: as §1

Escherichia coli ESS = tested on: Escherichia coli ESS
Excerpt: as §1

[2] = tested on: Staphylococcus aureus Oxford
Excerpt: as §1

Enterobacter cloacae N1 = tested on: Enterobacter cloacae N1
Excerpt: as §1

Proteus mirabilis C977 = tested on: Proteus mirabilis C977
Excerpt: as §1

Streptococcus faecalis I = conditions: Enterococcus faecalis
Excerpt: as §1

Proteus vulgaris W091 = tested on: Proteus vulgaris W091
Excerpt: as §1

Citrobacter freundii E8 = tested on: Citrobacter freundii E8
Excerpt: as §1

[3] = tested on: Staphylococcus aureus 1517
Excerpt: as §1

Serratia marcescens US20 = tested on: Serratia marcescens US20
Excerpt: as §1

Pseudomonas aeruginosa A = tested on: Pseudomonas aeruginosa A
Excerpt: as §1

[4] = tested on: Klebsiella aerogenes Ba 95 R+
Excerpt: as §1

Escherichia coli JT 4 R+ = tested on: Escherichia coli JT 4 R+
Excerpt: as §1

Escherichia coli JT 39 = conditions: JT39
Excerpt: as §1

Proteus morganii I580 = conditions: Morganella morganii
Excerpt: as §1

Bacillus subtilis A = tested on: Bacillus subtilis A
Excerpt: as §1

Proteus rettgeri WM16 = conditions: Providencia rettgeri
Excerpt: as §1

[5] = tested on: Staphylococcus aureus Russell
Excerpt: as §1

[6] = tested on: Streptococcus pyogenes CN10
Excerpt: as §1

[7] = tested on: Streptococcus pneumoniae CN33
Excerpt: as §1

[8] = Salmonella typhimurium CR10, read-out: MIC
[9] = Staphylococcus aureus Oxford, read-out: MIC
[10] = Streptococcus faecalis I, read-out: MIC
[11] = Pseudomonas aeruginosa A, read-out: MIC
[12] = Proteus morganii I580, read-out: MIC
[13] = Bacillus subtilis A, read-out: MIC
[14] = Proteus rettgeri WM16, read-out: MIC

| SMILES | MIC (Klebsiella aerogenes A; Klebsiella aerogenes) [µg/mL] | MIC [1, 8] [µg/mL] | MIC (Escherichia coli 0111) [µg/mL] | MIC (Shigella sonnei MB 11967) [µg/mL] | MIC (Escherichia coli ESS; Escherichia coli) [µg/mL] | MIC [2, 9] [µg/mL] | MIC (Enterobacter cloacae N1; read-out: MIC) [µg/mL] | MIC (Proteus mirabilis C977; read-out: MIC) [µg/mL] | MIC (Streptococcus faecalis I; [10]) [µg/mL] | MIC (Proteus vulgaris W091; read-out: MIC) [µg/mL] | MIC (Citrobacter freundii E8; read-out: MIC) [µg/mL] | MIC ([3]; read-out: MIC) [µg/mL] | MIC (Serratia marcescens US20; read-out: MIC) [µg/mL] | MIC (Pseudomonas aeruginosa A; [11]) [µg/mL] | MIC (Escherichia coli JT 39; Escherichia coli) [µg/mL] | MIC (Proteus morganii I580; [12]) [µg/mL] | MIC (Bacillus subtilis A; [13]) [µg/mL] | MIC (Proteus rettgeri WM16; [14]) [µg/mL] | MIC ([5]; Staphylococcus aureus) [µg/mL] | MIC ([1]; TYPHIMURIUM) [µg/mL] | also measured |
| --- | --- | --- | --- | --- | --- | --- | --- | --- | --- | --- | --- | --- | --- | --- | --- | --- | --- | --- | --- | --- | --- |
| CC(=O)N/C=C/SC1=C(C(=O)O)N2C(=O)[C@H]([C@@H](C)N)[C@H]2C1 [Example 2, (5R,6R)-3-[E-2-acetamidoethenylthio]-6-[(R)-1-aminoethyl]-7-oxo-1-azabicyclo[3.2.0]hept-2-ene-2-carboxylic acid] | 0.5 (≈ 1.61 µM) | 1 (≈ 3.21 µM) | 0.5 (≈ 1.61 µM) | 1 (≈ 3.21 µM) | 0.2 (≈ 0.642 µM) | 0.5 (≈ 1.61 µM) | 2 (≈ 6.42 µM) | 4 (≈ 12.8 µM) | 4 (≈ 12.8 µM) | 4 (≈ 12.8 µM) | 2 (≈ 6.42 µM) | 8 (≈ 25.7 µM) | 2 (≈ 6.42 µM) | 62 (≈ 199 µM) | 0.5 (≈ 1.61 µM) | 8 (≈ 25.7 µM) | 0.2 (≈ 0.642 µM) | 4 (≈ 12.8 µM) | – | – | MIC [4]: 2 µg/mL (≈ 6.42 µM); MIC (Escherichia coli JT 4 R+): 2 µg/mL (≈ 6.42 µM) |
| CC(=O)N/C=C/SC1=C(C(=O)[O-])N2C(=O)[C@H]([C@@H](C)O)[C@H]2C1.[Na+] [Example 5, Sodium (5R,6S)-3-(E-2-acetamidoethenylthio)-6-[(R)-1-hydroxyethyl]-7-oxo-1-azabicyclo[3.2.0]hept-2-ene-2-carboxylate] | 0.5 | – | ≤ 0.5 | ≤ 1 | > 0.2 | – | – | – | – | – | – | – | – | – | 0.2 | – | – | – | ≤ 0.5 | 0.5 | MIC [6]: 0.5 µg/mL; MIC ([2]; Staphylococcus aureus): 0.2 µg/mL; MIC (Enterobacter cloacae N1): 1 µg/mL; MIC (Proteus mirabilis C977): 2 µg/mL; MIC [7]: 0.2 µg/mL; MIC (Streptococcus faecalis I): 8 µg/mL; MIC (Proteus vulgaris W091): 2 µg/mL; MIC (Citrobacter freundii E8): 0.5 µg/mL; MIC (Serratia marcescens US20): 2 µg/mL; MIC (Pseudomonas aeruginosa A; Pseudomonas aeruginosa): 125 µg/mL; MIC (Proteus morganii I580; I580): 2 µg/mL; MIC (Bacillus subtilis A; Bacillus subtilis): 0.2 µg/mL; MIC (Proteus rettgeri WM16; WM16): 2 µg/mL |
| CC(=O)N/C=C/SC1=C(C(=O)[O-])N2C(=O)[C@H]([C@@H](C)OC=O)[C@H]2C1.[Na+] [Example 6, Sodium (5R,6S)-3-(E-2-acetamidoethenylthio)-6-[(R)-1-formyloxyethyl]-7-oxo-1-azabicyclo[3.2.0]hept-2-ene-2-carboxylate] | 1.6 | – | 1.6 | 1.6 | 0.4 | – | – | – | – | – | – | – | – | – | 0.8 | – | – | – | 0.4 | 3.1 | MIC [6]: 0.2 µg/mL; MIC ([2]; Staphylococcus aureus): 0.8 µg/mL; MIC (Enterobacter cloacae N1): 6.2 µg/mL; MIC (Proteus mirabilis C977): 6.2 µg/mL; MIC [7]: 0.1 µg/mL; MIC (Streptococcus faecalis I): 12.5 µg/mL; MIC (Proteus vulgaris W091): 3.1 µg/mL; MIC (Citrobacter freundii E8): 1.6 µg/mL; MIC [3]: 12.5 µg/mL; MIC (Serratia marcescens US20): 3.1 µg/mL; MIC (Pseudomonas aeruginosa A; Pseudomonas aeruginosa): 100 µg/mL; MIC (Proteus morganii I580; I580): 6.2 µg/mL; MIC (Bacillus subtilis A; Bacillus subtilis): 0.8 µg/mL; MIC (Proteus rettgeri WM16; WM16): 3.1 µg/mL |
| CC(=O)NCCSC1=C(C(=O)O)N2C(=O)[C@H]([C@@H](C)N)[C@H]2C1 [Example 8, (5R,6R)-3-(2-Acetamidoethylthio)-6-[(R)-1-aminoethyl]-7-oxo-1-azabicyclo[3.2.0]hept-2-ene-2-carboxylic acid] | – | 8 (≈ 25.5 µM) | 16 (≈ 51.1 µM) | 8 (≈ 25.5 µM) | – | 4 (≈ 12.8 µM) | 16 (≈ 51.1 µM) | 31 (≈ 98.9 µM) | 16 (≈ 51.1 µM) | 16 (≈ 51.1 µM) | 16 (≈ 51.1 µM) | 31 (≈ 98.9 µM) | 16 (≈ 51.1 µM) | 62 (≈ 198 µM) | – | 16 (≈ 51.1 µM) | 4 (≈ 12.8 µM) | 16 (≈ 51.1 µM) | – | – | MIC (Klebsiella aerogenes A; Klebsiella aerogenes A, read-out: MIC): 8 µg/mL (≈ 25.5 µM); MIC ([5]; Staphylococcus aureus Russell, read-out: MIC): 2 µg/mL (≈ 6.38 µM); MIC (Escherichia coli ESS; Escherichia coli ESS, read-out: MIC): 4 µg/mL (≈ 12.8 µM); MIC ([6]; read-out: MIC): 2 µg/mL (≈ 6.38 µM); MIC ([7]; read-out: MIC): 2 µg/mL (≈ 6.38 µM); MIC (Escherichia coli JT 39; Escherichia coli JT 39, read-out: MIC): 8 µg/mL (≈ 25.5 µM) |

— US4438036A, “β-Lactam antibiotics their preparation and their use” (priority 1980, dated 1984)
